Test results: patent US20030082625A1, “Method for the pretreatment of a surface for the reduction of non-specific binding by chemical entities” (priority 2001, published 2003)

Experiments:
[1] = Non-specific binding (NSB) of drugs to ultrafiltration membrane filter, regenerated cellulose (Millipore Ultrafree-MC UFC 3LGC00, 10 k NMWL); format: physicochemical; conditions: for NSB (%) 0.5% BAK: pretreatment 0.5% benzalkonium chloride; for NSB (%) 0.5% BAK / NSB (%) 1% BAK / NSB (%) 2% BAK / NSB (%) 5% BAK: drug 10 uM; for NSB (%) 0.5% BAK / NSB (%) 1% BAK / NSB (%) 2% BAK / NSB (%) 5% BAK / NSB (%) Control / NSB (%) Tween 80 / NSB (%) BAK / NSB (%) Serum / NSB (%) 0.5% Tween / NSB (%) 1% Tween / NSB (%) 2% Tween / NSB (%) 5% Tween / NSB (%) SLS: regenerated cellulose; for NSB (%) 1% BAK: pretreatment 1% benzalkonium chloride; for NSB (%) 2% BAK: pretreatment 2% benzalkonium chloride; for NSB (%) 5% BAK: pretreatment 5% benzalkonium chloride; for NSB (%) Tween 80: pretreatment with 0.5% Tween 80; for NSB (%) BAK: pretreatment with 0.5% benzalkonium chloride; for NSB (%) Serum: pretreatment with human serum; for NSB (%) RC: regenerated cellulose membrane, drug concentration 10 uM; for NSB (%) 0.5% Tween: pretreatment 0.5% Tween 80; for NSB (%) 0.5% Tween / NSB (%) 1% Tween / NSB (%) 2% Tween / NSB (%) 5% Tween: drug 5 uM; for NSB (%) 1% Tween: pretreatment 1% Tween 80; for NSB (%) 2% Tween: pretreatment 2% Tween 80; for NSB (%) 5% Tween: pretreatment 5% Tween 80; for NSB (%) SLS: pretreatment with 0.5% sodium lauryl sulfate
Method: (§1) Various experiments were performed using the following reagents, surfactants and reservoirs (also comprising ultrafiltration units): human serum, pH 7.4 phosphate buffered saline (PBS), drug solution (i.e. compound) in serum at a concentration of 1-50 μM, and drug solution in PBS at a concentration of 1-50 μM were used as reagents. Surfactant solutions were 0.01-20% Tween 80 (polyoxyethylene 20 sorbitan monooleate) in PBS as neutral solution, 0.01-20% Benzalkonium chloride (BAK) in PBS as cationic solution, 0.01-20% Sodium lauryl sulfate (SLS) in PBS as anionic solution. An ultrafiltration reservoir (Millipore, Ultrafree-MC) comprising regenerated cellulose (UFC 3LGC00, 10 k NMWL) or polyethersulfone (UFC 3BSC00, 10 k NMWL) was used.
(§2) The upper ultrafiltration cup was connected to the reservoir tube and 25 μL surfactant solution was added to each well. After bedewing for 5 min, the reservoir tube containing the ultrafiltration cup was centrifuged for 10 min at 3000 g and room temperature.
(§3) 200 μL of PBS was added to each ultrafiltration cup and equilibrated for 30 min. Remaining PBS was removed from the ultrafiltration cup by gentle tapping the cup. The upper ultrafiltration cup was reconnected to a new reservoir tube, and 400 μL drug solution (1-50 μM) in serum or PBS was applied and equilibrated for 1 hr at room temperature.
(§4) The ultrafiltration tube was centrifuged for 18 min at 3000 g at room temperature. 50 μL sample was taken from the receiver (filtrate) and donor (drug solution in serum or PBS) for bioanalysis. Non-specific binding was calculated as follows:
(§5) NSB=(Cf1-Cf2)/Cf1, where NSB: non specific binding to membrane filter at pH 7.4 isotonic PBS, Cf1: free drug before filtration, and Cf2: free drug in the filtrate after filtration

[2] = Non-specific binding (NSB) of drugs to ultrafiltration membrane filter, polyethersulfone (Millipore Ultrafree-MC UFC 3BSC00, 10 k NMWL); format: physicochemical; conditions: no pretreatment, drug concentration 10 uM
Method: as §1, §2, §3, §4, §5

[3] = no pretreatment, drug concentration 50 uM
[4] = no surfactant pretreatment, drug concentration 5 uM, pH 7.4 PBS

| SMILES | NSB (%) 0.5% BAK [1] | NSB (%) 1% BAK [1] | NSB (%) 2% BAK [1] | NSB (%) 5% BAK [1] | NSB (%) PES [2] | NSB (%) Control [1, 3] | NSB (%) Control [1, 4] | NSB (%) Tween 80 ([1]; drug concentration 5 uM) | NSB (%) BAK ([1]; drug concentration 5 uM) | NSB (%) Serum ([1]; drug concentration 50 uM) | NSB (%) RC ([1]; no pretreatment) | NSB (%) 0.5% Tween [1] | NSB (%) 1% Tween [1] | NSB (%) 2% Tween [1] | NSB (%) 5% Tween [1] | NSB (%) SLS ([1]; drug concentration 50 uM) |
| --- | --- | --- | --- | --- | --- | --- | --- | --- | --- | --- | --- | --- | --- | --- | --- | --- |
| COc1ccc(CCN(C)CCCC(C#N)(c2ccc(OC)c(OC)c2)C(C)C)cc1OC (centres unmarked) [Verapamil] | 43% | 34% | 25% | 12% |  |  |  |  |  |  |  |  |  |  |  |  |
| COc1cc([C@@H]2c3cc4c(cc3[C@@H](O[C@@H]3O[C@@H]5CO[C@@H](C)O[C@H]5[C@H](O)[C@H]3O)[C@H]3COC(=O)[C@H]23)OCO4)cc(OC)c1O [Etoposide] |  |  |  |  | 93% | 91% | 91% | 23.1% | 28.3% | 93% | 91% |  |  |  |  |  |
| C[C@]12CCC(=O)C=C1CC[C@@H]1[C@@H]2[C@@H](O)C[C@@]2(C)[C@H]1CC[C@]2(O)C(=O)CO [Hydrocortisone] | 30% | 22% | 16% | 14% | 71% | 87% | 87% | 21.1% | 25% | 84% | 87% | 52% | 35% | 33% | 30% | 62% |
| CC(C(=O)O)c1cccc(C(=O)c2ccccc2)c1 (centres unmarked) [Ketoprofen] |  |  |  |  |  |  | 34% | 4.1% |  |  |  |  |  |  |  |  |
| Cc1cc(=O)n(-c2ccccc2)n1C [Antipyrine] |  |  |  |  |  |  | 10% | 0% | 0% |  |  |  |  |  |  |  |
| CC(C)Cc1ccc(C(C)C(=O)O)cc1 (centres unmarked) [Ibuprofen] |  |  |  |  |  |  | 29% | 2.3% |  |  |  |  |  |  |  |  |
| CC[C@]1(O)C[C@@H]2CN(CCc3c([nH]c4ccccc34)[C@@](C(=O)OC)(c3cc4c(cc3OC)N(C)[C@H]3[C@@](O)(C(=O)OC)[C@H](OC(C)=O)[C@]5(CC)C=CCN6CC[C@]43[C@@H]65)C2)C1 [Vinblastine] | 82% | 79% | 68% | 59% | 95% |  | 95% | 95.2% | 64% |  | 95% |  |  |  |  |  |
| Cn1c(=O)c2c(ncn2C)n(C)c1=O [Caffeine] |  |  |  |  |  |  | 17% | 0% | 0% |  |  |  |  |  |  |  |
| Cn1c(=O)c2[nH]cnc2n(C)c1=O [Theophylline] |  |  |  |  |  |  | 8% | 0% | 0% |  |  |  |  |  |  |  |
| CC(C)NCC(O)COc1cccc2ccccc12 (centres unmarked) [Propranolol] | 14% | 15% | 5% | 10% | 69% | 91% | 91% | 46.5% | 13% | 90% | 91% | 66% | 65% | 60% | 52% | 84% |
